According to PubChem BioAssay AID252 (DTP/NCI, 2004):
Several values for one entry are separate records, joined by “and”; a condition that tells them apart may be missing. Equal entries are not always repeated. Toxic doses and inconclusive results are not listed.

Test system: BDF1 mice, intracerebral L1210 leukemia, survival T/C
Experiment: NCI In Vivo Anticancer Drug Screen. Data for tumor model L1210 Leukemia (intracerebral) in B6D2F1 (BDF1) mice
Conditions: higher = longer survival
Method in brief: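 Antitumour effect is judged in mice with transplanted tumour by comparing survival of treated (T) against vehicle-dosed (C) groups as T/C.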

[1] = endpoint: mean survival time, dose: 7.5 mg/kg/injection, schedule: Q01DX001 (ip), vehicle: carboxymethylcellulose (CMC)
[2] = endpoint: mean survival time, dose: 8.0 mg/kg/injection, schedule: Q01DX001 (ip), vehicle: carboxymethylcellulose (CMC)
[3] = endpoint: mean survival time, dose: 12.0 mg/kg/injection, schedule: Q01DX001 (ip), vehicle: carboxymethylcellulose (CMC)
[4] = endpoint: mean survival time, dose: 18.0 mg/kg/injection, schedule: Q01DX001 (ip), vehicle: carboxymethylcellulose (CMC)

## O=C(Nc1ccc(C2=NCCCN2)cc1)c1ccc(C(=O)Nc2ccc(C3=NCCCN3)cc2)cc1
endpoint: mean survival time, dose: 1.25 mg/kg/injection, schedule: Q01DX Z (ip), vehicle: carboxymethylcellulose (CMC)
  T/C: 107 % of control
endpoint: mean survival time, dose: 2.5 mg/kg/injection, schedule: Q01DX Z (ip), vehicle: carboxymethylcellulose (CMC)
  T/C: 107 % of control
endpoint: mean survival time, dose: 5.0 mg/kg/injection, schedule: Q01DX Z (ip), vehicle: carboxymethylcellulose (CMC)
  T/C: 114 % of control
endpoint: mean survival time, dose: 31.0 mg/kg/injection, schedule: Q01DX Z (ip), vehicle: carboxymethylcellulose (CMC)
  T/C: 104 % of control

## COc1ccc(NC(=O)N(CCCl)N=O)cc1
endpoint: mean survival time, dose: 4.4 mg/kg/injection, schedule: Q01DX015 (ip), vehicle: saline
  T/C: 105 % of control
endpoint: mean survival time, dose: 6.6 mg/kg/injection, schedule: Q01DX015 (ip), vehicle: saline
  T/C: 113 % of control
endpoint: mean survival time, dose: 9.9 mg/kg/injection, schedule: Q01DX001 (ip), vehicle: carboxymethylcellulose (CMC)
  T/C: 104 % of control
endpoint: mean survival time, dose: 10.0 mg/kg/injection, schedule: Q01DX015 (ip), vehicle: saline
  T/C: 113 % of control
endpoint: mean survival time, dose: 15.0 mg/kg/injection, schedule: Q01DX001 (ip), vehicle: saline
  T/C: 102 % of control
endpoint: mean survival time, dose: 15.0 mg/kg/injection, schedule: Q01DX015 (ip), vehicle: saline
  T/C: 124 % of control
endpoint: mean survival time, dose: 19.8 mg/kg/injection, schedule: Q01DX001 (ip), vehicle: carboxymethylcellulose (CMC)
  T/C: 108 % of control
endpoint: mean survival time, dose: 22.0 mg/kg/injection, schedule: Q01DX015 (ip), vehicle: saline
  T/C: 104 % of control
endpoint: mean survival time, dose: 30.0 mg/kg/injection, schedule: Q01DX001 (ip), vehicle: saline
  T/C: 105 % of control
endpoint: mean survival time, dose: 39.6 mg/kg/injection, schedule: Q01DX001 (ip), vehicle: carboxymethylcellulose (CMC)
  T/C: 102 % of control
endpoint: mean survival time, dose: 60.0 mg/kg/injection, schedule: Q01DX001 (ip), vehicle: saline
  T/C: 108 % of control
endpoint: mean survival time, dose: 120.0 mg/kg/injection, schedule: Q01DX001 (ip), vehicle: saline
  T/C: 113 % of control
endpoint: mean survival time, dose: 240.0 mg/kg/injection, schedule: Q01DX001 (ip), vehicle: saline
  T/C: 111 % of control

## O=NN(CCCl)C(=O)NC1CCS(=O)(=O)CC1
[1]
  T/C: 212 % of control
[2]
  T/C: 171 % of control and 172 % of control
endpoint: mean survival time, dose: 11.4 mg/kg/injection, schedule: Q01DX001 (ip), vehicle: carboxymethylcellulose (CMC)
  T/C: 289 % of control
[3]
  T/C: 197 % of control and 281 % of control
endpoint: mean survival time, dose: 17.0 mg/kg/injection, schedule: Q01DX001 (ip), vehicle: carboxymethylcellulose (CMC)
  T/C: 298 % of control
[4]
  T/C: 151 % of control and 251 % of control
endpoint: mean survival time, dose: 25.0 mg/kg/injection, schedule: Q01DX001 (ip), vehicle: carboxymethylcellulose (CMC)
  T/C: 151 % of control
endpoint: mean survival time, dose: 27.0 mg/kg/injection, schedule: Q01DX001 (ip), vehicle: carboxymethylcellulose (CMC)
  T/C: 88 % of control
endpoint: mean survival time, dose: 37.0 mg/kg/injection, schedule: Q01DX001 (ip), vehicle: carboxymethylcellulose (CMC)
  T/C: 90 % of control

## C[C@H]1CN1C1=CC(=O)C(N2C[C@@H]2C)=CC1=O
endpoint: mean survival time, dose: 8.0 mg/kg/injection, schedule: Q01DX009 (ip), vehicle: saline
  T/C: 90 % of control

## N[C@H](C(=O)O)[C@@H]1CC(Cl)=NO1
endpoint: mean survival time, dose: 1.0 mg/kg/injection, schedule: Q01DX009 (ip), vehicle: saline
  T/C: 109 % of control
endpoint: mean survival time, dose: 2.0 mg/kg/injection, schedule: Q01DX009 (ip), vehicle: saline
  T/C: 114 % of control
endpoint: mean survival time, dose: 16.0 mg/kg/injection, schedule: Q01DX009 (ip), vehicle: saline
  T/C: 116 % of control
endpoint: mean survival time, dose: 32.0 mg/kg/injection, schedule: Q01DX009 (ip), vehicle: saline
  T/C: 100 % of control
endpoint: median survival time, dose: 4.0 mg/kg/injection, schedule: Q01DX009 (ip), vehicle: saline
  T/C: 120 % of control
endpoint: median survival time, dose: 8.0 mg/kg/injection, schedule: Q01DX009 (ip), vehicle: saline
  T/C: 124 % of control
endpoint: median survival time, dose: 32.0 mg/kg/injection, schedule: Q01DX009 (ip), vehicle: saline
  T/C: 100 % of control
endpoint: median survival time, dose: 64.0 mg/kg/injection, schedule: Q01DX009 (ip), vehicle: saline
  T/C: 100 % of control

## O=NN(CCCl)C(=O)CCCCC(=O)N(CCCl)N=O
endpoint: mean survival time, dose: 44.0 mg/kg/injection, schedule: Q01DX001 (ip), vehicle: carboxymethylcellulose (CMC)
  T/C: 95 % of control
endpoint: mean survival time, dose: 67.0 mg/kg/injection, schedule: Q01DX001 (ip), vehicle: carboxymethylcellulose (CMC)
  T/C: 96 % of control
endpoint: mean survival time, dose: 100.0 mg/kg/injection, schedule: Q01DX001 (ip), vehicle: carboxymethylcellulose (CMC)
  T/C: 94 % of control

## O=NN(CCCl)C(=O)Nc1ccc(C(=O)O)cc1
endpoint: mean survival time, dose: 2.5 mg/kg/injection, schedule: Q01DX001 (ip), vehicle: carboxymethylcellulose (CMC)
  T/C: 101 % of control
endpoint: mean survival time, dose: 3.7 mg/kg/injection, schedule: Q01DX001 (ip), vehicle: carboxymethylcellulose (CMC)
  T/C: 97 % of control
endpoint: mean survival time, dose: 5.0 mg/kg/injection, schedule: Q01DX001 (ip), vehicle: carboxymethylcellulose (CMC)
  T/C: 106 % of control
endpoint: mean survival time, dose: 6.0 mg/kg/injection, schedule: Q01DX001 (ip), vehicle: carboxymethylcellulose (CMC)
  T/C: 100 % of control
[1]
  T/C: 101 % of control
[2]
  T/C: 106 % of control
[3]
  T/C: 108 % of control
[4]
  T/C: 104 % of control

## CN(N=O)C(=O)C(=O)N(C)N=O
endpoint: mean survival time, dose: 15.0 mg/kg/injection, schedule: Q01DX Z (ip), vehicle: saline
  T/C: 98 % of control
endpoint: mean survival time, dose: 30.0 mg/kg/injection, schedule: Q01DX Z (ip), vehicle: saline
  T/C: 97 % of control
endpoint: mean survival time, dose: 60.0 mg/kg/injection, schedule: Q01DX Z (ip), vehicle: saline
  T/C: 98 % of control
endpoint: mean survival time, dose: 120.0 mg/kg/injection, schedule: Q01DX Z (ip), vehicle: saline
  T/C: 98 % of control

## O=NN(CCO)C(=O)Nc1c[nH]c(=O)[nH]c1=O
endpoint: mean survival time, dose: 173.0 mg/kg/injection, schedule: Q01DX001 (ip), vehicle: carboxymethylcellulose (CMC)
  T/C: 100 % of control
endpoint: mean survival time, dose: 260.0 mg/kg/injection, schedule: Q01DX001 (ip), vehicle: carboxymethylcellulose (CMC)
  T/C: 102 % of control
endpoint: mean survival time, dose: 400.0 mg/kg/injection, schedule: Q01DX001 (ip), vehicle: carboxymethylcellulose (CMC)
  T/C: 106 % of control
